From US12624018B1, “Inhibitors of RIPK2 and medical uses thereof” (Odyssey Therapeutics, Inc., priority 2022, dated 2026)

target: T1, RIPK2 enzyme (Homo sapiens, UniProt O43353); assay: RIPK2 inhibition (ADP-Glo Kinase Assay); assay type: biochemical; conditions: RIPK2 5 nM, ATP 150 μM, MBP substrate, read-out: RIPK2 IC50
T1 construct: purchased Carna 09-128
Method in brief: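 Human RIPK2 (5 nM) preincubated with compound 30 min at room temperature in 50 mM HEPES pH 7.5, 10 mM MgCl2, 2 mM DTT, 1 mM EGTA, 0.01% Brij-35, 0.05% BSA; native swine MBP as substrate. ADP formed quantified by ADP-Glo luminescence; percent inhibition relative to DMSO and no-enzyme controls.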

T1 sequence (O43353 1-299 limits assumed): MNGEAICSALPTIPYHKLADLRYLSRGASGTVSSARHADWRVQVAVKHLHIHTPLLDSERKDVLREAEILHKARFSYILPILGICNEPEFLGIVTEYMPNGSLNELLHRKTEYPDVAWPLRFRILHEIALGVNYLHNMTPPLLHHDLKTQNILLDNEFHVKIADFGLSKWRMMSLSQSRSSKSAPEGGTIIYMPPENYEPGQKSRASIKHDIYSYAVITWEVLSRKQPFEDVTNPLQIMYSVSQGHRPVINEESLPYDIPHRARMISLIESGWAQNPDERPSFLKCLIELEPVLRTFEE

| Compound | IC50 |
| --- | --- |
| COc1cc2nccc(Oc3cc(F)c(CC(=O)Nc4cnn(C(C)(C)C)c4)cc3C)c2cc1C(N)=O [Compound 436, 4-(4-(2-((1-(tert-butyl)-1H-pyrazol-4-yl)amino)-2-oxoethyl)-5-fluoro-2-methylphenoxy)-7-methoxyquinoline-6-carboxamide] | < 2.5 nM |
| CN1CCC(Oc2ccc3ncnc(Oc4ccc(CC(=O)Nc5cnn(C(C)(C)C)c5)c(F)c4F)c3c2)CC1 [Compound 170, N-(1-(tert-butyl)-1H-pyrazol-4-yl)-2-(2,3-difluoro-4-((6-((1-methyl-piperidin-4-yl)oxy)quinazolin-4-yl)oxy)phenyl) acetamide] | < 2.5 nM |
| Cc1cc(CC(=O)Nc2cnn(C(C)(C)C)c2)c(F)cc1Oc1ccnc2ccc(S(=O)(=O)CC(C)(C)O)cc12 [Compound 415, N-(1-(tert-butyl)-1H-pyrazol-4-yl)-2-(2-fluoro-4-((6-((2-hydroxy-2-methylpropyl)sulfonyl)quinolin-4-yl)oxy)-5-methylphenyl)acetamide] | < 2.5 nM |
| Cc1cc(CC(=O)Nc2cnn(C(C)(C)C)c2)ccc1Oc1ccnc2ccc(N3CC(CN)OC3=O)cc12 (single isomer, unassigned) [Compound 319, 2-(4-((6-(5-(aminomethyl)-2-oxooxazolidin-3-yl)quinolin-4-yl)oxy)-3-methylphenyl)-N-(1-(tert-butyl)-1H-pyrazol-4-yl)acetamide] | < 2.5 nM |
| Cc1c(Oc2ccnc3ccc(S(=O)(=O)N4CC(F)C4)cc23)ccc(CC(=O)Nc2cnn(C(C)(C)C)c2)c1F [Compound 272, N-(1-(tert-butyl)-1H-pyrazol-4-yl)-2-(2-fluoro-4-((6-((3-fluoroazetidin-1-yl)sulfonyl)quinolin-4-yl)oxy)-3-methylphenyl)acetamide] | < 2.5 nM |
| Cc1cc(CC(=O)Nc2cc(C(C)(C)CO)n[nH]2)ccc1Oc1ccnc2ccc(S(C)(=O)=O)cc12 [Compound 328, N-(5-(1-hydroxy-2-methylpropan-2-yl)-1H-pyrazol-3-yl)-2-(3-methyl-4-((6-(methylsulfonyl)quinolin-4-yl)oxy)phenyl)acetamide] | < 2.5 nM |
| Cc1cc(CC(=O)Nc2cnn(C(C)(C)C)c2)ccc1Oc1ncnc2ccc(OC3CCN(CC(F)(F)F)CC3)cc12 [Compound 111, N-(1-(tert-butyl)-1H-pyrazol-4-yl)-2-(3-methyl-4-((6-((1-(2,2,2-trifluoroethyl)piperidin-4-yl)oxy)quinazolin-4-yl)oxy)phenyl) acetamide] | 36.4 nM |
| Cc1cc(CC(=O)Nc2cnn(C(C)(C)C)c2)c(F)cc1Oc1ccnc2ccc(C(=O)NC3CC3)cc12 [Compound 457, 4-(4-(2-((1-(tert-butyl)-1H-pyrazol-4-yl)amino)-2-oxoethyl)-5-fluoro-2-methylphenoxy)-N-cyclopropylquinoline-6-carboxamide] | < 2.5 nM |
| CSc1ccc2nccc(Oc3cc(F)c(CC(=O)Nc4cnn(C(C)(C)C)c4)cc3C)c2c1 [Compound 459, N-(1-(tert-butyl)-1H-pyrazol-4-yl)-2-(2-fluoro-5-methyl-4-((6-(methylthio)quinolin-4-yl)oxy)phenyl)acetamide] | < 2.5 nM |
| Cc1c(Oc2ccnc3ccc(C(O)CO)cc23)ccc(CC(=O)Nc2cnn(C(C)(C)C)c2)c1F (stereo not drawn) [Compound 444, N-(1-(tert-butyl)-1H-pyrazol-4-yl)-2-(4-((6-(1,2-dihydroxyethyl)quinolin-4-yl)oxy)-2-fluoro-3-methylphenyl)acetamide] | < 2.5 nM |
| Cc1c(Oc2ccnc3ccc(C(=O)N4CCC4)cc23)ccc(CC(=O)Nc2cnn(C(C)(C)C)c2)c1F [Compound 344, 2-(4-((6-(azetidine-1-carbonyl)quinolin-4-yl)oxy)-2-fluoro-3-methyl-phenyl)-N-(1-(tert-butyl)-1H-pyrazol-4-yl)acetamide] | < 2.5 nM |
| Cc1c(Oc2ncnc3ccc(OC4CCNCC4)cc23)ccc(CC(=O)Nc2cnn(C(C)(C)C)c2)c1F [Compound 106, N-(1-(tert-butyl)-1H-pyrazol-4-yl)-2-(2-fluoro-3-methyl-4-((6-(piperidin-4-yloxy)quinazolin-4-yl)oxy)phenyl) acetamide] | < 2.5 nM |
| COc1ccc2ncnc(Oc3ccc(CC(=O)Nc4cc(C(C)(C)CO)ccn4)c(F)c3)c2c1 [Compound 35, 2-(2-fluoro-4-((6-methoxy-quinazolin-4-yl)oxy)phenyl)-N-(4-(1-hydroxy-2-methylpropan-2-yl)pyridin-2-yl)acetamide] | 29.6 nM |
| CCS(=O)(=O)c1ccc2nccc(Oc3ccc(CC(=O)Nc4cnn(C(C)(C)C)c4)c(F)c3C)c2c1 [Compound 173, N-(1-(tert-butyl)-1H-pyrazol-4-yl)-2-(4-((6-(ethylsulfonyl)quinolin-4-yl)oxy)-2-fluoro-3-methylphenyl)acetamide] | < 2.5 nM |
| Cc1c(Oc2ccnc3ccc(S(=O)(=O)C4CC(O)C4)cc23)ccc(CC(=O)Nc2cnn(C(C)(C)C)c2)c1F (single isomer, unassigned) [Compound 286, N-(1-(tert-butyl)-1H-pyrazol-4-yl)-2-(2-fluoro-4-((6-((-3-hydroxycyclobutyl)sulfonyl)quinolin-4-yl)oxy)-3-methylphenyl)acetamide] | < 2.5 nM |
| Cc1cc(CC(=O)Nc2cnn(C(C)(C)C)c2)ccc1Oc1ccnc2ccc(S(=O)(=O)C3CCC(=O)NC3)cc12 (stereo not drawn) [Compound 243, N-(1-(tert-butyl)-1H-pyrazol-4-yl)-2-(3-methyl-4-((6-((6-oxopiperidin-3-yl)sulfonyl)quinolin-4-yl)oxy)phenyl)acetamide] | < 2.5 nM |
| CC(C)(C)n1cc(NC(=O)Cc2ccc(Oc3ccnc4ccc(N5CCCC5=O)cc34)cc2F)cn1 [Compound 152, N-(1-(tert-butyl)-1H-pyrazol-4-yl)-2-(2-fluoro-4-((6-(2-oxopyrrolidin-1-yl)quinolin-4-yl)oxy)phenyl) acetamide] | < 2.5 nM |
| Cc1cc(CC(=O)Nc2cnn(C(C)(C)C)c2)c(F)cc1Oc1ccnc2ccc(C(=O)N3CCC(O)C3)cc12 (single isomer, unassigned) [Compound 375, N-(1-(tert-butyl)-1H-pyrazol-4-yl)-2-(2-fluoro-4-((6-(3-hydroxy-pyrrolidine-1-carbonyl)quinolin-4-yl)oxy)-5-methyl-phenyl) acetamide] | < 2.5 nM |
| CCS(=O)(=O)c1ccc2nccc(Oc3ccc(CC(=O)Nc4cnn(C(C)(C)C)c4)c(F)c3F)c2c1 [Compound 168, N-(1-(tert-butyl)-1H-pyrazol-4-yl)-2-(4-((6-(ethylsulfonyl)quinolin-4-yl)oxy)-2,3-difluorophenyl)acetamide] | < 2.5 nM |
| Cc1cc(CC(=O)Nc2cc(C(C)(C)C)n[nH]2)ccc1Oc1ccnc2ccc(S(C)(=O)=O)cc12 [Compound 87, N-(5-(tert-butyl)-1H-pyrazol-3-yl)-2-(3-methyl-4-((6-(methylsulfonyl)quinolin-4-yl)oxy)phenyl)acetamide] | < 2.5 nM |
| Cc1cc(CC(=O)Nc2cnn(C(C)(C)C)c2)ccc1Oc1ccnc2ccc(O[C@H]3CC[C@@H](N)CC3)cc12 [Compound 121, 2-(4-((6-(((1s,4s)-4-aminocyclo-hexyl)oxy)quinolin-4-yl)oxy)-3-methyl-phenyl)-N-(1-(tert-butyl)-1H-pyrazol-4-yl)acetamide] | < 2.5 nM |
| Cc1cc(CC(=O)Nc2cnn(C(C)(C)C)c2)ccc1Oc1ccnc2ccc(OC[C@H]3CCNC3)cc12 [Compound 193, (S)-N-(1-(tert-butyl)-1H-pyrazol-4-yl)-2-(3-methyl-4-((6-(pyrrolidin-3-ylmethoxy)quinolin-4-yl)oxy)phenyl) acetamide] | < 2.5 nM |
| Cc1cc(CC(=O)Nc2cc(C3CC3)[nH]n2)ccc1Oc1ccnc2ccc(S(C)(=O)=O)cc12 [Compound 234, N-(5-cyclopropyl-1H-pyrazol-3-yl)-2-(3-methyl-4-((6-(methylsulfonyl)quinolin-4-yl)oxy)phenyl)acetamide] | < 2.5 nM |
| CC(C)(C)n1cc(NC(=O)Cc2ccc(Oc3ccnc4ccc(S(=O)(=O)C5CCNCC5)cc34)cc2F)cn1 [Compound 127, N-(1-(tert-butyl)-1H-pyrazol-4-yl)-2-(2-fluoro-4-((6-(piperidin-4-ylsulfonyl)quinolin-4-yl)oxy)phenyl)acetamide] | < 2.5 nM |
| Cn1nc(NC(=O)Cc2ncc(Oc3ccnc4ccc(S(C)(=O)=O)cc34)cc2F)cc1C(C)(C)C [Compound 41, N-(5-(tert-butyl)-1-methyl-1H-pyrazol-3-yl)-2-(3-fluoro-5-((6-(methylsulfonyl)quinolin-4-yl)oxy)pyridin-2-yl)acetamide] | 7.6 nM |
| CNC(=O)c1ccc2ncnc(Oc3ccc(CC(=O)Nc4cnn(C(C)(C)C)c4)c(F)c3)c2c1 [Compound 25, 4-(4-(2-((1-(tert-butyl)-1H-pyrazol-4-yl)amino)-2-oxoethyl)-3-fluoro-phenoxy)-N-methyl-quinazoline-6-carboxamide] | 4.3 nM |
| Cc1cc(CC(=O)Nc2cc(C(C)(C)C)ncn2)ccc1Oc1ncnc2ccc(F)cc12 [Compound 54, N-(6-(tert-butyl)pyrimidin-4-yl)-2-(4-((6-fluoroquinazolin-4-yl)oxy)-3-methylphenyl) acetamide] | 54.1 nM |
| Cc1cc(CC(=O)Nc2cnn(C(C)(C)C)c2)ccc1Oc1ccnc2ccc(S(=O)(=O)C3CCNCC3)cc12 [Compound 311, N-(1-(tert-butyl)-1H-pyrazol-4-yl)-2-(3-methyl-4-((6-(piperidin-4-ylsulfonyl)quinolin-4-yl)oxy)phenyl)acetamide] | < 2.5 nM |
| Cc1c(Oc2ccnc3ccc(S(=O)(=O)C4CCOC4)cc23)ccc(CC(=O)Nc2cnn(C(C)(C)C)c2)c1F (single isomer, unassigned) [Compound 250, N-(1-(tert-butyl)-1H-pyrazol-4-yl)-2-(2-fluoro-3-methyl-4-((6-((tetrahydrofuran-3-yl)sulfonyl)quinolin-4-yl)oxy)phenyl)acetamide] | < 2.5 nM |
| Cn1nc(NC(=O)Cc2ccc(Oc3ccnc4ccc(S(C)(=O)=O)cc34)cc2F)cc1C(C)(C)C [Compound 40, N-(5-(tert-butyl)-1-methyl-1H-pyrazol-3-yl)-2-(2-fluoro-4-((6-(methylsulfonyl)quinolin-4-yl)oxy)phenyl)acetamide] | < 2.5 nM |
